From US9958451B2, “Near-infrared fluorescent dyes with large stokes shifts” (Portland State University, priority 2011, dated 2018)
Where two headings read alike, the source gives them in different places.

What was measured:
[1] = Effect of pH / ionization on spectra; assay type: physicochemical
Source text: There are through-space polar interactions between R^18 and the internal bridge oxygen in compounds according to general formulas III, IX, and X. The field effect is further enhanced in the case of symmetric compounds, such as those according to general formula IV when R^19 is oxygen. A unique intramolecular hydrogen-bonding network also is present in such compounds, e.g., compound 8 (FIG. 25). This network produces enhanced negative charge density on the ionizable oxygen atoms, thereby promoting a relatively large bathochromic shift. […] The hydrogen bonding can be seen in compounds such as compound 8 by ^1H NMR spectroscopy. A redistribution of the electronic density around the hydrogen atom occurs upon hydrogen bond formation between the hydroxyl proton, the carbonyl, and the central oxygen of compound 8. […] Evidence of hydrogen bonding was also seen in compound 15a, but to a lesser degree. In compound 15a, the total hydrogen bond distance O—H—O between the hydroxyl at the R^18 position and the xanthene central oxygen is 2.95 Å, which falls in range of common hydrogen bonds.
Known seminaphthorhodafluors display long wavelength absorption at high pH; however, the free amino compound in this series respond to low pH with increased long wavelength absorption.

[2] = UV-visible absorbance spectroscopy, 15 μM in 90% aqueous, 10% DMSO; assay type: physicochemical; details: for Red shift of absorption spectra from 3-1 transposition versus known regiochemistry: depending on the ionization state
Procedure: Compounds 21 and 7 were characterized by UV-visible spectroscopy (FIG. 15). Absorbance was measured using 15 μM solutions of each compound in a solution that was 90% aqueous, 10% DMSO. The peaks at 600 nm (light dashed line) and 675 nm (light solid line) represent the dianions of compounds 21 and 7, respectively, in NaOH (pH 12). The peaks at 590 nm (heavy dashed line) and 650 nm (heavy solid line) represent a mix of mono- and dianions of compound 21 at pH 7.4 and predominantly monoanions of compound 7 at pH 9, respectively.
Compounds 22 and 8 were characterized by UV-visible spectroscopy (FIG. 16). Absorbance was measured using 15 μM solutions of each compound in a solution that was 90% aqueous, 10% DMSO. The peaks at 610 nm (light dashed line) and 685 nm (light solid line) represent the anions of compounds 22 and 8, respectively, in NaOH (pH 12). The peaks at 605 nm (heavy dashed line) and 805 nm (heavy solid line) represent the neutral forms of compounds 22 and 8 at pH 7.4, respectively.
Compounds 20a and 15a were characterized by UV-visible spectroscopy (FIG. 17). Absorbance was measured using 15 μM solutions of each compound in a solution that was 90% aqueous, 10% DMSO. The peaks at 545 nm (light dashed line) and 595 nm (light solid line) represent the respective anions, compounds 20c and 15h, in NaOH (pH 12).
Compound 15b (free amino) was characterized by UV-visible spectroscopy (FIG. 18), and compared to C.SNARF-5 (literature, SNARF=seminaphthorhodafluor). Absorbance was measured using a 15 μM solution of compound 15b in a solution that was 90% aqueous, 10% DMSO. The peak at 535 nm (heavy line) represents the predominantly phenolic form of 15b at pH 6. The peak at 615 nm (light line) represents the phenoxide of compound 15b at in NaOH (pH12). In comparison, C.SNARF-5 produces a peak at 550 nm (anionic form) and a peak at 485 nm (neutral form) (Whitaker et al., Anal. Biochem. 1991, 194, 330-344).
Absorbance was measured using 15 μM solutions of compound 15d in a solution that was 90% aqueous, 10% DMSO. The peak at 570 nm (heavy line) represents the predominantly neutral form of 15d at pH 6. The peak at 630 nm (light line) represents the phenoxide of compound 15d in NaOH (pH 12).
Compounds 20b and 15g were characterized by UV-visible spectroscopy (FIG. 20). Absorbance was measured using 15 μM solutions of each compound in a solution that was 90% aqueous, 10% DMSO. The peaks at 540 nm (dashed line) and 570 nm (solid line) represent the cations of compounds 20b and 15g, respectively, at pH 7.4.

[3] = Fluorescence emission spectra, 15 μM in 90% aqueous, 10% DMSO; assay type: physicochemical; details: for Red-shifted emission from 3-1 transposition versus known regiochemistry: longest wavelength-emitting species
Procedure: Compounds 21 and 7 also were characterized by their fluorescence emission spectra. Fluorescence was measured using 15 μM solutions of each compound in a solution that was 90% aqueous, 10% DMSO. For compound 21, the longest wavelength emission observed from the dianions occurred near 680 nm at pH 9. For compound 7 (transposed), the longest wavelength emission observed from the monoanion occurred near 800 nm at pH 9.
Compounds 22 and 8 also were characterized by their fluorescence emission spectra. Fluorescence was measured using 15 μM solutions of each compound in a solution that was 90% aqueous, 10% DMSO For compound 22, the longest wavelength emission observed from the anion occurred near 690 nm at pH 9. […] Given the greater than 800 nm absorbance peak and the typically large Stokes shifts observed in this class of compounds, it is likely that the emission was beyond the working range of the instrument (>850 nm).
Compounds 20 and 15a also were characterized by their fluorescence emission spectra. Fluorescence was measured using 15 μM solutions of each compound in a solution that was 90% aqueous, 10% DMSO. For compound 20a, the longest wavelength emission observed from its corresponding anion, compound 20c, occurred near 640 nm in NaOH (pH 12). For compound 15a (transposed), the longest wavelength emission observed from the corresponding anion, compound 15h, occurred near 760 nm in NaOH.
Compound 15b also was characterized by its fluorescence emission spectrum and compared to C.SNARF-5. Fluorescence was measured using a 15 μM solution of compound 15b in a solution that was 90% aqueous, 10% DMSO. For C.SNARF-5, the longest wavelength emission observed from the anion occurred near 632 nm (Whitaker et al., Anal. Biochem. 1991, 194, 330-344). For compound 15b (transposed), the longest wavelength emission observed from the phenoxide occurred near 770 nm.
Fluorescence was measured using a 15 μM solution of compound 15d in a solution that was 90% aqueous, 10% DMSO. […] For compound 15d (transposed), the longest wavelength emission observed from the phenoxide occurred near 780 nm (NaOH, pH 12).
Compounds 20b and 15g also were characterized by their fluorescence emission spectra. Fluorescence was measured using 15 μM solutions of each compound in a solution that was 90% aqueous, 10% DMSO. For compound 20b, the longest wavelength emission observed from the cation occurred near 640 nm at pH 7.4. For compound 15g (transposed), the longest wavelength emission observed from the cation occurred near 770 nm at pH 7.4.

[4] = Emission in blood (whole porcine blood in buffer)
Procedure: Compound 15d (Table 1) was diluted to 40 μM in 50% DMSO:50% 25 mM pH 9 phosphate buffer. […] Emission remained stable for at least 1 hr. The absorption profile matches the output of a laser pointer (635-670 nm; max output <5 mW).
Its absorbance and fluorescence spectra faded over time, but remained visible after about an hour (although with only 10-20% of its original emission intensity). Molecular modeling has shown favorable structural interactions of compounds 5f and 24 with glutathione (FIG. 12—compound 24).
Spectral behavior of compound 15g (type [c] annulated seminaphtho-rhodamine methyl ester (free amine) with the 3-1 transposition) was investigated to determine its potential for sensing use in whole blood. Solutions of compound 15g in 10% or 90% by volume whole blood (porcine blood in Na-EDTA, Lampire Biological Laboratories) were investigated in a 3×3 mm cell. The fluorophore was first dissolved in 50 mM, pH 7.4 phosphate buffer to ensure complete dissolution, and in the case of 90% whole blood, this stock solution was mixed with whole blood in a 1:9 ratio. In the case of 10% whole blood, 1 part whole blood was added to 9 parts of an appropriately diluted (with deionized water) solution of compound 15g stock. In both cases, the final concentration of compound 15g was 150 μM with a final phosphate buffer concentration of 5 mM. […] Throughout much of the spectrum, the dye produces a greater absorbance than the blood alone. The change in absorbance between the two spectra provides the effective absorbance of the dye. […] The broad absorption and large Stokes shift of this dye allows significant excitation with greater than 50% efficiency at wavelengths beyond that of the major hemoglobin peaks in blood.

[5] = 10 mM HEPES, pH 7.5, 15% (v/v) EtOH, Leytus et al., cited from earlier work
[6] = Spectral properties of rhodamine bis-boronic acids and precursors in DMSO:buffer; assay type: physicochemical
Procedure: Characterization: The spectral properties of compounds 50-53 were determined. Absorption and fluorescence spectra of solutions of the rhodamine bis-boronic acids 51 and 53, and their respective precursors 50 and 52, are shown in FIGS. 27A-C (in DMSO:buffer 1:9) and 27D-F (DMSO:buffer 1:1). […] Excitation and emission spectra were normalized to their absorbance at the excitation wavelength, and are proportional to quantum yield.

[7] = Absorbance and fluorescence in methanol; assay type: physicochemical
Procedure: Absorbance and fluorescence of compounds 22 and 8 also were measured in methanol. […] Thus, placement of the hydroxyl group proximal to the xanthene internal oxygen in compound 8 produced a bathochromic shift of 103 nm in the absorption spectrum. The transposition also imparted a corresponding shift in the excitation spectrum, and a large bathochromic shift of 128 nm in the fluorescence emission. Importantly, compound 8 absorbs and emits in the near-infrared with absorption and emission maxima of 701 nm and 816 nm, respectively.
Absorbance and fluorescence of compounds 20a and 15a also were measured in methanol. […] Thus, placement of the hydroxyl group proximal to the xanthene internal oxygen in compound 15a produced a bathochromic shift of 15 nm in the absorbance spectrum. The transposition also imparted a corresponding shift in the excitation spectrum, and a large bathochromic shift of 32 nm in the fluorescence emission.

[8] = NaOH (pH 12), anionic/phenoxide form, 90% aqueous 10% DMSO
[9] = 40 μM in 50% DMSO:50% 25 mM pH 9 phosphate buffer

O=C1OC2(c3ccccc31)c1ccc3cccc(O)c3c1Oc1c2ccc2cccc(O)c12 [Compound 7]
Form below physiological pH of 7.4 ([1]; 1:9 DMSO:buffer): colorless lactone | Red shift of absorption spectra from 3-1 transposition versus known regiochemistry ([2]; 90% aqueous 10% DMSO): 60-75 nm | Absorbance peak [2, 8]: 675 nm | Absorbance peak ([2]; pH 9, predominantly monoanions): 650 nm | Stokes shift [3]: about 150 nm | Longest wavelength emission ([3]; NaOH (pH 12), anion/phenoxide): too weak to be detected or, more likely, beyond the working range of the instrument | Red-shifted emission from 3-1 transposition versus known regiochemistry [3]: about 120 nm | Longest wavelength emission ([3]; pH 9): ~800 nm

Cc1ccc(C)c(-c2c3ccc4cccc(O)c4c3oc3c2ccc2cccc(=O)c23)c1 [Compound 10, 7-(2,5-dimethylphenyl)-13-hydroxy-1H-dibenzo[c,h]xanthen-1-one]
Shift of the absorption maximum on deprotonation [1]: hypsochromic

COC(=O)c1ccccc1-c1c2ccc(=O)cc-2oc2c1ccc1cccc(N)c12 [Compound 15e]
Response of absorption to pH (pH titration) [1]: increased long wavelength absorption and decreased short wavelength absorption at low pH

COC(=O)c1ccccc1-c1c2ccc(=[N+](C)C)cc-2oc2c1ccc1cccc(O)c12 [Compound 15d]
λmax em [4, 9]: ~790 nm | λmax ex [4, 9]: ~690 nm | Time emission remained stable ([4]; 5% whole blood): at least 1 hr | Loss of fluorescence on inclusion of whole blood ([4]; final blood concentration 5% by volume): only minimal loss of fluorescence | Red shift of absorption spectra from 3-1 transposition versus known regiochemistry ([2]; 90% aqueous 10% DMSO): 55-57 nm | Absorbance peak [2, 8]: 630 nm | Absorbance peak ([2]; pH 6, predominantly neutral/phenolic form): 570 nm | Enhancement of the Stokes shift by 3-1 transposition [3]: about 92 nm | Stokes shift [3]: about 150 nm | Longest wavelength emission ([3]; NaOH (pH 12), anion/phenoxide): ~780 nm | Red-shifted emission from 3-1 transposition versus known regiochemistry [3]: about 149 nm

Cl.N=c1ccc2c(-c3ccccc3C(=O)O)c3ccc(N)cc3oc-2c1 [Rhodamine 110]
Abs [5]: 495 nm | Em [5]: 523 nm | Q.Y. [5]: 0.91 | Brightness ([5]; @ 492): 60788 @ 492 | ε ([5]; @ 492): 66800 M⁻¹ cm⁻¹ | Em ([6]; DMSO:buffer 1:1): 526 nm | Ex ([6]; DMSO:buffer 1:1): 502 nm | ε ([6]; DMSO:buffer 1:1): 67905 M⁻¹ cm⁻¹ | Abs ([6]; DMSO:buffer 1:1, pH 7.4 phosphate buffer 12.5 mM): 503 nm

COC(=O)c1ccccc1-c1c2ccc3cccc(O)c3c2oc2c1ccc1cccc(=O)c12 [Compound 8]
Shift of the absorption maximum on deprotonation [1]: does not result in a large bathochromic shift | pH up to which NIR fluorescence was observed [1]: ≤ 9 | Absorption maximum [7]: 701 nm | Bathochromic shift in the absorption spectrum versus known regiochemistry [7]: 103 nm | Bathochromic shift in the fluorescence emission versus known regiochemistry [7]: 128 nm | Emission maximum [7]: 816 nm | Red shift of absorption spectra from 3-1 transposition versus known regiochemistry ([2]; 90% aqueous 10% DMSO): 75-200 nm | Absorbance peak [2, 8]: 685 nm | Stokes shift [3]: unmeasurable | Red-shifted emission from 3-1 transposition versus known regiochemistry [3]: more than 160 nm | Longest wavelength emission ([3]; pH not stated): emission was not observed
